Test results as given in PMC3265293, “Artificial 64-Residue HIV-1 Enhancer-Binding Peptide Is a Potent Inhibitor of Viral Replication in HIV-1-Infected Cells” (Advances in Virology, 2011).
Where no end group is shown, it is not given here.

Experiments:
CEM-GFP cells = experiment: MTT assay of PMA-stimulated CEM-GFP cells; type: cell-based, human; settings: PMA and increasing concentrations of peptide, after 48 h
Description: After 48 h, cell growth-inhibitory effects of the peptides and PMA were assessed using the 3-[4,5-dimethylthiazol-2-yl]-2,5-diphenyltetrazolium bromide (MTT) assay.

plasma membrane = tested on: plasma membrane; design: method as in earlier work; settings: ref earlier work; cited from earlier work

For “GKTKRPRFGKTKRPRVGQQSIEQLENGKTKRPRFGKTKRPRY [R42]”, the “cytotoxicity (MTT assay)” value (CEM-GFP cells) is given as “not observed” and the “ability to pass the plasma membrane” value (plasma membrane) is given as “not able to pass the plasma membrane”.
